Source: patent US20240083892A1 (BISICHEM CO., LTD., priority 2021, published 2024)

Legend:
RIPK1 [1] = molecular target: T1, RIPK1 (Homo sapiens, UniProt Q13546); assay: Cell-based necroptosis assay for RIPK1 activity (cell viability by CCK-8); settings: HT-29 cells; Z-VAD-FMK 20 μM, human TNFα 10 ng/ml, SM-164 100 nM; 24 h; read-out: Cell-base RIPK1 activity: Necroptosis
T1 construct: endogenous in cells; host or cells: HT-29 (KCLB 30038)
T1 sequence (Q13546 1-671): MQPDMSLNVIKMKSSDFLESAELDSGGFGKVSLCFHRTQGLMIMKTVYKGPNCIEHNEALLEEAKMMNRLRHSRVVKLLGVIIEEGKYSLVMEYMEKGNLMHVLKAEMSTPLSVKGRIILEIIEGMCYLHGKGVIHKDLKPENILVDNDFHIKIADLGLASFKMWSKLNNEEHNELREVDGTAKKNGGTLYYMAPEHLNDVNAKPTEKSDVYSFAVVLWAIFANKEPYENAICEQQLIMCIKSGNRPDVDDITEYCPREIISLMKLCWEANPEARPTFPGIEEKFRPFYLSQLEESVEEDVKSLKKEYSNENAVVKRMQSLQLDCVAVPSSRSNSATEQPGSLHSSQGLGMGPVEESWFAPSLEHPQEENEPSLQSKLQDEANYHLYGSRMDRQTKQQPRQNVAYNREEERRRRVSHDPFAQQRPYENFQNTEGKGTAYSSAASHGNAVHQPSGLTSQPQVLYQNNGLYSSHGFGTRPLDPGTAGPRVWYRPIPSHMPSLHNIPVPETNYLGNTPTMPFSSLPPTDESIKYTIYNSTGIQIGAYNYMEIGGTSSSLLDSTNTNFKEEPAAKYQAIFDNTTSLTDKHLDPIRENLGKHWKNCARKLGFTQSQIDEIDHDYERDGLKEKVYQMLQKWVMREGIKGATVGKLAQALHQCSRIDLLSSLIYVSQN
Summary of the method: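 HT-29 cells pretreated 30 min with 20 μM Z-VAD-FMK, then necroptosis induced with human TNFα 10 ng/ml plus SM-164 100 nM alongside RIPK1 inhibitor (0.0001–10 uM) for 24 h. Viability read by CCK-8.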

RIPK1 [2] = molecular target: T1, RIPK1; assay: Immunoblotting of TNFα induced phospho-RIPK1 (ser 166) levels; type: cell-based; settings: HMC3 cells; Z-VAD-FMK, human TNFα 20 ng/ml, SM-164 100 nM; 7 h, serum free media; read-out: Cell-base RIPK1 activity: phspho-RIPK1 (Ser166)
Summary of the method: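 HMC3 human microglial cells were pretreated 30 min with Z-VAD-FMK […]. They were then given TNFα 20 ng/ml, SM-164 100 nM and inhibitor (0.1, 1, 10 nM) for 7 h in serum-free medium. BCA-normalised lysates were immunoblotted for phospho-RIPK1 Ser166.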

Q: For `CN1C(=O)[C@@H](NC(=O)n2cc(Cc3cccc(F)c3)cn2)COc2ccc(OCC(=O)N3CC(C)(O)C3)cc21` [Example 49, (S)-4-(3-fluorobenzyl)-N-(7-(2-(3-hydroxy-3-methylazetidin-1-yl)-2-oxoethoxy)-5-methyl-4-oxo-2,3,4,5-tetrahydrobenzo[b][1,4]oxazepin-3-yl)-1H-pyrazole-1-carboxamide], which IC50 (RIPK1 [1]) is on record?
A: The IC50 was < 10 nM.

Q: And the IC50 (RIPK1 [2])?
A: Its IC50 is < 10 nM.

Q: `CN1C(=O)[C@@H](NC(=O)n2cc(Cc3cccc(F)c3)cn2)COc2ccc(OCCCc3cccnc3)cc21` [Example 29, (S)-4-(3-fluorobenzyl)-N-(5-methyl-4-oxo-7-(3-(pyridin-3-yl)propoxy)-2,3,4,5-tetrahydrobenzo[b][1,4]oxazepin-3-yl)-1H-pyrazole-1-carboxamide] was tested. Which IC50 (RIPK1 [1]) did it give?
A: The IC50 was < 10 nM.

Q: What about the IC50 (RIPK1 [2]) of the same molecule?
A: The IC50 was < 10 nM.

Q: How did the IC50 (RIPK1 [1]) turn out when `CN1C(=O)[C@@H](NC(=O)n2cc(Cc3cccc(F)c3)cn2)COc2ccc(OCC(=O)N3CC(O)C3)cc21` [Example 50, (S)-4-(3-fluorobenzyl)-N-(7-(2-(3-hydroxyazetidin-1-yl)-2-oxoethoxy)-5-methyl-4-oxo-2,3,4,5-tetrahydrobenzo[b][1,4]oxazepin-3-yl)-1H-pyrazole-1-carboxamide] was run?
A: The IC50 was < 10 nM.

Q: And the IC50 (RIPK1 [2])?
A: Its IC50 is < 10 nM.

Q: Which IC50 (RIPK1 [1]) does the source give for `CN1C(=O)[C@@H](NC(=O)n2cc(Cc3cccc(F)c3)cn2)COc2ccc(OCc3cn(CC(C)(C)O)nn3)cc21` [Example 68, (S)-4-(3-fluorobenzyl)-N-(7-((1-(2-hydroxy-2-methylpropyl)-1H-1,2,3-triazol-4-yl)methoxy)-5-methyl-4-oxo-2,3,4,5-tetrahydrobenzo[b][1,4]oxazepin-3-yl)-1H-pyrazole-1-carboxamide] here?
A: The IC50 was < 10 nM.

Q: And the IC50 (RIPK1 [2])?
A: Its IC50 is < 10 nM.

Q: Which IC50 (RIPK1 [1]) does the source give for `COC(=O)c1csc(COc2ccc3c(c2)N(C)C(=O)[C@@H](NC(=O)n2cc(Cc4cccc(F)c4)cn2)CO3)n1` [Example 65, Methyl (S)-2-(((3-(4-(3-fluorobenzyl)-1H-pyrazole-1-carboxamido)-5-methyl-4-oxo-2,3,4,5-tetrahydrobenzo[b][1,4]oxazepin-7-yl)oxy)methyl)thiazole-4-carboxylate] here?
A: The IC50 was < 10 nM.

Q: What about the IC50 (RIPK1 [2]) of the same molecule?
A: The IC50 was < 10 nM.

Q: Which IC50 (RIPK1 [1]) does the source give for `CN1C(=O)[C@@H](NC(=O)n2cc(Cc3cccc(F)c3)cn2)COc2ccc(C(=O)N3CCC(C)(O)CC3)cc21` [Example 5, (S)-4-(3-fluorobenzyl)-N-(7-(4-hydroxy-4-methylpiperidine-1-carbonyl)-5-methyl-4-oxo-2,3,4,5-tetrahydrobenzo[b][1,4]oxazepin-3-yl)-1H-pyrazole-1-carboxamide] here?
A: Its IC50 is < 10 nM.

Q: What about the IC50 (RIPK1 [2]) of the same molecule?
A: Its IC50 is < 10 nM.

Q: What does the source list for `CN1C(=O)[C@@H](NC(=O)n2cc(Cc3cccc(F)c3)cn2)COc2ccc(C(=O)N3CC4(COC4)C3)cc21` [Example 14, (S)-4-(3-fluorobenzyl)-N-(5-methyl-4-oxo-7-(2-oxa-6-azaspiro[3.3]heptane-6-carbonyl)-2,3,4,5-tetrahydrobenzo[b][1,4]oxazepin-3-yl)-1H-pyrazole-1-carboxamide]?
A: IC50 (RIPK1 [1]): 10 to 50 nM; IC50 (RIPK1 [2]): 10 to 50 nM

Q: `CN1C(=O)[C@@H](NC(=O)n2cc(Cc3cccc(F)c3)cn2)COc2ccc(OCC(=O)N3CCCCC3)cc21` [Example 36, (S)-4-(3-fluorobenzyl)-N-(5-methyl-4-oxo-7-(2-oxo-2-(piperidin-1-yl)ethoxy)-2,3,4,5-tetrahydrobenzo[b][1,4]oxazepin-3-yl)-1H-pyrazole-1-carboxamide] was tested. Which IC50 (RIPK1 [1]) did it give?
A: Its IC50 is < 10 nM.

Q: What about the IC50 (RIPK1 [2]) of the same molecule?
A: The IC50 was < 10 nM.
